# Assay results from ChEMBL document CHEMBL1137239, “Accurate prediction of the relative potencies of members of a series of kinase inhibitors using molecular docking and MM-GBSA scoring” (J Med Chem, 2006).
# Target: T1, Aurora kinase A (Homo sapiens, UniProt O14965)
# T1 sequence (O14965 whole entry): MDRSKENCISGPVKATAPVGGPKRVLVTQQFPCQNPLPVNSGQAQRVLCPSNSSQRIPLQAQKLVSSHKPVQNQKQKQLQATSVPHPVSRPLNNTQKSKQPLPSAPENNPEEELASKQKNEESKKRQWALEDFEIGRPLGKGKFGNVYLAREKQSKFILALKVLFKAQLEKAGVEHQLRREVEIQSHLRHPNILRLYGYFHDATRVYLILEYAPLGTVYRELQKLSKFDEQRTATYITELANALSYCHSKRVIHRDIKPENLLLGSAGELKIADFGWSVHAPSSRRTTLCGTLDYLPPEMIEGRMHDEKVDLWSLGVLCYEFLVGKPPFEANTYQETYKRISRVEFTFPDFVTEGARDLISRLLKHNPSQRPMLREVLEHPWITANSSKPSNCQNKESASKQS
# Test: Inhibition of Aurora A
row,IC50,SMILES
1,3.9 µM,CCCN(CCC)S(=O)(=O)c1ncc(C(=O)Nc2ncc(Nc3ncnc4cc(OCCCN5CCOCC5)c(OC)cc34)cn2)cn1
2,0.07 µM,COc1cc2c(Nc3cnc(NC(=O)c4ccc(Cc5ccccc5)c(Br)c4)nc3)ncnc2cc1OCCCN1CCOCC1
3,0.0008 µM,COc1cc2c(Nc3cnc(NC(=O)c4ccccc4)nc3)ncnc2cc1OC[C@@H](O)CN1CCCCC1
